Laboratory results from US9018175B2 (Takeda GmbH, priority 2009, dated 2015).

Columns and labels:
human PDE5 = biological target: T1, human PDE5 (Homo sapiens, UniProt O76074); test: Inhibition of PDE5 activity (SPA, [3H]cGMP, platelet lysate); assay type: biochemical; conditions: PDE5 from human platelet lysate; values given as bins; read-out: PDE5A inhibitory values measured as −logIC50 (converted)
T1 construct: from tissue; host or cells: human platelets from fresh donor blood (10,000 g supernatant of sonicated platelets)
In short: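 Human platelet lysate served as PDE5 source, with 1 μM motapizone and 10 nM PDE2 inhibitor present; […] plus [3H]cGMP tracer, pH 7.4, 5 mM Mg2+, 10-20% substrate turnover. After 5 min preincubation, 15 min at 37 °C, stopped with SPA beads and IBMX; IC50 by non-linear regression.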

PDE4B1 = biological target: T2, PDE4B1 (Homo sapiens, UniProt Q07343); test: Inhibition of PDE4B1 activity (SPA, [3H]cAMP); assay type: biochemical; conditions: recombinant PDE4B1 expressed in SF21 cells; 0.5 pM [sic] cAMP; values given as bins; read-out: PDE4B1 inhibitory values measured as −logIC50 (converted)
T2 construct: made in house; host or cells: SF21 insect cells (baculovirus; pCR-Bac vector)
In short: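 Recombinant human PDE4B1 (Sf21 cell 1000 g supernatant) in 20 mM Tris pH 7.4, 0.1 mg/ml BSA, 5 mM Mg2+, […] with [3H]cAMP tracer, enzyme giving 10-20% conversion. After 5 min preincubation at 37 °C, 15 min reaction, stopped by SPA beads with IBMX; IC50 by non-linear regression.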

T2 sequence (Q07343 whole entry): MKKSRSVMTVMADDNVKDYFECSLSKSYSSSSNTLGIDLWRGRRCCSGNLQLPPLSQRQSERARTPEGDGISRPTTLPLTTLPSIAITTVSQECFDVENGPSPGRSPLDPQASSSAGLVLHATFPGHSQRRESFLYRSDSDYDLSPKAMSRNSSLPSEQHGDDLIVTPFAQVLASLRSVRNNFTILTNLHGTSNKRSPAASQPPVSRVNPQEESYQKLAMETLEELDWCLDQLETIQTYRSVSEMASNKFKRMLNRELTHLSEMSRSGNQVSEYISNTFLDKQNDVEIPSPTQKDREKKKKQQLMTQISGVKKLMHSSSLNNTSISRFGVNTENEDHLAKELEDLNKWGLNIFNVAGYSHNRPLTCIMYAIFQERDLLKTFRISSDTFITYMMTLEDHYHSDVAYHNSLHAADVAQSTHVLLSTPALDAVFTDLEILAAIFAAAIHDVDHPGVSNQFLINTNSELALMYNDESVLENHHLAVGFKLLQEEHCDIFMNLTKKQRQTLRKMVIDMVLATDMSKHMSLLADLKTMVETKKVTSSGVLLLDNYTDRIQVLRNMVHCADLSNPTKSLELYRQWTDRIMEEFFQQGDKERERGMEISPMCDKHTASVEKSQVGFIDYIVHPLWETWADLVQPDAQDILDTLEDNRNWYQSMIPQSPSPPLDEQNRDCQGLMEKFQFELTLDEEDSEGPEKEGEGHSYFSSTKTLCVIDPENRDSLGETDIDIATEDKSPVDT

| SMILES | IC50 (human PDE5) [nM] | IC50 (PDE4B1) [nM] |
| --- | --- | --- |
| CCOc1cc2c(cc1OC)C(c1ccc(C(=O)N3CCC(n4c(=O)c5sc(-c6cc(F)ccc6OC)cc5n(Cc5nnn(CC)n5)c4=O)CC3)cc1)=N[C@@H]1CCSC[C@H]21 [Example 34, 3-[1-({4-[(4aR,10bR)-9-ethoxy-8-methoxy-3,4,4a,10b-tetrahydro-1H-thiopyrano[4,3-c]isoquinolin-6-yl]phenyl}carbonyl)piperidin-4-yl]-1-[(2-ethyl-2H-tetrazol-5-yl)methyl]-6-(5-fluoro-2-methoxyphenyl)thieno[3,2-d]pyrimidine-2,4(1H,3H)-dione] | 10 to 100 | > 10 |
| CCOc1cc2c(cc1OC)C(c1ccc(C(=O)N3CCC(n4c(=O)c5sc(-c6ccccc6)cc5n(Cc5ccc(CC)s5)c4=O)CC3)cc1)=N[C@@H]1CCSC[C@H]21 [Example 55, 3-[1-({4-[(4aR,10bR)-9-ethoxy-8-methoxy-3,4,4a,10b-tetrahydro-1H-thiopyrano[4,3-c]isoquinolin-6-yl]phenyl}carbonyl)piperidin-4-yl]-1-[(5-ethylthiophen-2-yl)methyl]-6-phenylthieno[3,2-d]pyrimidine-2,4(1H,3H)-dione] | 10 to 100 | 1 to 10 |
| CCOc1cc2c(cc1OC)C(c1ccc(C(=O)N3CCC(n4c(=O)c5sc(-c6ccccc6)cc5n(Cc5nnc(C(C)(C)C)o5)c4=O)CC3)cc1)=N[C@@H]1CCSC[C@H]21 [Example 58, 1-[(5-tert-butyl-1,3,4-oxadiazol-2-yl)methyl]-3-[1-({4-[(4aR,10bR)-9-ethoxy-8-methoxy-3,4,4a,10b-tetrahydro-1H-thiopyrano[4,3-c]isoquinolin-6-yl]phenyl}carbonyl)piperidin-4-yl]-6-phenylthieno[3,2-d]pyrimidine-2,4(1H,3H)-dione] | > 100 | 1 to 10 |
| CCOc1cc2c(cc1OC)C(c1ccc(C(=O)N3CCC(n4c(=O)c5sc(-c6ccccc6)cc5n(Cc5nnc(COC)o5)c4=O)CC3)cc1)=N[C@@H]1CCSC[C@H]21 [Example 8, 3-[1-({4-[(4aR,10bR)-9-ethoxy-8-methoxy-3,4,4a,10b-tetrahydro-1H-thiopyrano[4,3-c]isoquinolin-6-yl]phenyl}carbonyl)piperidin-4-yl]-1-{[5-(methoxymethyl)-1,3,4-oxadiazol-2-yl]methyl}-6-phenylthieno[3,2-d]pyrimidine-2,4(1H,3H)-dione] | 10 to 100 | < 1 |
| CCOc1cc2c(cc1OC)C(c1ccc(C(=O)N3CCC(n4c(=O)c5sc(-c6ccccc6)cc5n(Cc5nc(COC)no5)c4=O)CC3)cc1)=N[C@@H]1CCSC[C@H]21 [Example 15, 3-(1-{4-[(4aR,10bR)-9-ethoxy-8-methoxy-3,4,4a,10b-tetrahydro-1H-thiopyrano[4,3-c]isoquinolin-6-yl]benzoyl}piperidin-4-yl)-1-{[3-(methoxymethyl)-1,2,4-oxadiazol-5-yl]methyl}-6-phenylthieno[3,2-d]pyrimidine-2,4(1H,3H)-dione] | < 10 | 1 to 10 |
| CCOc1cc2c(cc1OC)C(c1ccc(C(=O)N3CCC(n4c(=O)c5sc(-c6ccccc6)cc5n(Cc5noc(C)n5)c4=O)CC3)cc1)=N[C@@H]1CCSC[C@H]21 [Example 2, 3-[1-({4-[(4aR,10bR)-9-ethoxy-8-methoxy-3,4,4a,10b-tetrahydro-1H-thiopyrano[4,3-c]isoquinolin-6-yl]phenyl}carbonyl)piperidin-4-yl]-1-[(5-methyl-1,2,4-oxadiazol-3-yl)methyl]-6-phenylthieno[3,2-d]pyrimidine-2,4(1H,3H)-dione] | < 10 | 1 to 10 |
| CCOc1cc2c(cc1OC)C(c1ccc(C(=O)N3CCC(n4c(=O)c5sc(-c6ccccc6)cc5n(Cc5ccn(CC)n5)c4=O)CC3)cc1)=N[C@@H]1CCSC[C@H]21 [Example 18, 3-[1-({4-[(4aR,10bR)-9-ethoxy-8-methoxy-3,4,4a,10b-tetrahydro-1H-thiopyrano[4,3-c]isoquinolin-6-yl]phenyl}carbonyl)piperidin-4-yl]-1-[(1-ethyl-1H-pyrazol-3-yl)methyl]-6-phenylthieno[3,2-d]pyrimidine-2,4(1H,3H)-dione] | > 100 | 1 to 10 |
| CCOc1cc2c(cc1OC)C(c1ccc(C(=O)N3CCC(n4c(=O)c5sc(-c6ccccc6)cc5n(Cc5nnn(COC)n5)c4=O)CC3)cc1)=N[C@@H]1CCSC[C@H]21 [Example 28, 3-[1-({4-[(4aR,10bR)-9-ethoxy-8-methoxy-3,4,4a,10b-tetrahydro-1H-thiopyrano[4,3-c]isoquinolin-6-yl]phenyl}carbonyl)piperidin-4-yl]-1-{[2-(methoxymethyl)-2H-tetrazol-5-yl]methyl}-6-phenylthieno[3,2-d]pyrimidine-2,4(1H,3H)-dione] | < 10 | < 1 |

Now from value to molecule:

| IC50 (human PDE5) [nM] | IC50 (PDE4B1) [nM] | SMILES |
| --- | --- | --- |
| < 10 | > 10 | CCOc1cc2c(cc1OC)C(c1cccc(C(=O)N3CCC(n4c(=O)c5sc(-c6ccccc6)cc5n(Cc5nnn(CC)n5)c4=O)CC3)c1)=N[C@@H]1CCSC[C@H]21 [Example 26, 3-[1-({3-[(4aR,10bR)-9-ethoxy-8-methoxy-3,4,4a,10b-tetrahydro-1H-thiopyrano[4,3-c]isoquinolin-6-yl]phenyl}carbonyl)piperidin-4-yl]-1-[(2-ethyl-2H-tetrazol-5-yl)methyl]-6-phenylthieno[3,2-d]pyrimidine-2,4(1H,3H)-dione] |
| < 10 | > 10 | CCOc1cc2c(cc1OC)C(c1cccc(C(=O)N3CCC(n4c(=O)c5sc(-c6ccc(F)cc6)cc5n(Cc5nnn(CC)n5)c4=O)CC3)c1)=N[C@@H]1CCSC[C@H]21 [Example 41, 3-[1-({3-[(4aR,10bR)-9-ethoxy-8-methoxy-3,4,4a,10b-tetrahydro-1H-thiopyrano[4,3-c]isoquinolin-6-yl]phenyl}carbonyl)piperidin-4-yl]-1-[(2-ethyl-2H-tetrazol-5-yl)methyl]-6-(4-fluorophenyl)thieno[3,2-d]pyrimidine-2,4(1H,3H)-dione] |
| 10 to 100 | 1 to 10 | CCOc1cc2c(cc1OC)C(c1ccc(C(=O)N3CCC(n4c(=O)c5sc(-c6ccccc6)cc5n(Cc5ncc(C)s5)c4=O)CC3)cc1)=N[C@@H]1CCSC[C@H]21 [Example 12, 3-[1-({4-[(4aR,10bR)-9-ethoxy-8-methoxy-3,4,4a,10b-tetrahydro-1H-thiopyrano[4,3-c]isoquinolin-6-yl]phenyl}carbonyl)piperidin-4-yl]-1-[(5-methyl-1,3-thiazol-2-yl)methyl]-6-phenylthieno[3,2-d]pyrimidine-2,4(1H,3H)-dione] |
| > 100 | < 1 | CCOc1cc2c(cc1OC)C(c1ccc(C(=O)N3CCC(n4c(=O)c5sc(-c6ccccc6)cc5n(Cc5ocnc5C)c4=O)CC3)cc1)=N[C@@H]1CCSC[C@H]21 [Example 54, 3-[1-({4-[(4aR,10bR)-9-ethoxy-8-methoxy-3,4,4a,10b-tetrahydro-1H-thiopyrano[4,3-c]isoquinolin-6-yl]phenyl}carbonyl)piperidin-4-yl]-1-[(4-methyl-1,3-oxazol-5-yl)methyl]-6-phenylthieno[3,2-d]pyrimidine-2,4(1H,3H)-dione] |
| < 10 | 1 to 10 | CCOc1cc2c(cc1OC)C(c1ccc(C(=O)N3CCC(n4c(=O)c5sc(-c6ccc7c(c6)OCO7)cc5n(Cc5nc(CC)no5)c4=O)CC3)cc1)=N[C@@H]1CCSC[C@H]21 [Example 46, 6-(1,3-benzodioxol-5-yl)-3-[1-({4-[(4aR,10bR)-9-ethoxy-8-methoxy-3,4,4a,10b-tetrahydro-1H-thiopyrano[4,3-c]isoquinolin-6-yl]phenyl}carbonyl)piperidin-4-yl]-1-[(3-ethyl-1,2,4-oxadiazol-5-yl)methyl]thieno[3,2-d]pyrimidine-2,4(1H,3H)-dione] |
| < 10 | 1 to 10 | CCOc1cc2c(cc1OC)C(c1ccc(C(=O)N3CCC(n4c(=O)c5sc(-c6ccccc6)cc5n(Cc5nc(CC)no5)c4=O)CC3)cc1)=N[C@@H]1CCSC[C@H]21 [Example 7, 3-(1-{4-[(4aR,10bR)-9-ethoxy-8-methoxy-3,4,4a,10b-tetrahydro-1H-thiopyrano[4,3-c]isoquinolin-6-yl]benzoyl}piperidin-4-yl)-1-[(3-ethyl-1,2,4-oxadiazol-5-yl)methyl]-6-phenylthieno[3,2-d]pyrimidine-2,4(1H,3H)-dione] |
| < 10 | < 1 | CCOc1cc2c(cc1OC)C(c1ccc(C(=O)N3CCC(n4c(=O)c5sc(-c6ccccc6)cc5n(Cc5nnnn5COC)c4=O)CC3)cc1)=N[C@@H]1CCSC[C@H]21 [Example 29, 3-[1-({4-[(4aR,10bR)-9-ethoxy-8-methoxy-3,4,4a,10b-tetrahydro-1H-thiopyrano[4,3-c]isoquinolin-6-yl]phenyl}carbonyl)piperidin-4-yl]-1-{[1-(methoxymethyl)-1H-tetrazol-5-yl]methyl}-6-phenylthieno[3,2-d]pyrimidine-2,4(1H,3H)-dione] |
| 10 to 100 | 1 to 10 | CCOc1cc2c(cc1OC)C(c1ccc(C(=O)N3CCC(n4c(=O)c5sc(-c6ccccc6)cc5n(Cc5nc(CC)co5)c4=O)CC3)cc1)=N[C@@H]1CCSC[C@H]21 [Example 5, 3-[1-({4-[(4aR,10bR)-9-ethoxy-8-methoxy-3,4,4a,10b-tetrahydro-1H-thiopyrano[4,3-c]isoquinolin-6-yl]phenyl}carbonyl)piperidin-4-yl]-1-[(4-ethyl-1,3-oxazol-2-yl)methyl]-6-phenylthieno[3,2-d]pyrimidine-2,4(1H,3H)-dione] |
